Molecular target: T1, firefly luciferase enzyme (FLuc) (Photinus pyralis, UniProt P08659)
T1 construct: commercial purified enzyme (Promega E1701)
Assay: bioluminescence read-out, 384-well plate
Type: biochemical
Conditions: 10 µM ATP with 10 µM D-luciferin, 5 mM MgSO4; ATP and Mg needed for signal

T1 sequence (P08659 whole entry): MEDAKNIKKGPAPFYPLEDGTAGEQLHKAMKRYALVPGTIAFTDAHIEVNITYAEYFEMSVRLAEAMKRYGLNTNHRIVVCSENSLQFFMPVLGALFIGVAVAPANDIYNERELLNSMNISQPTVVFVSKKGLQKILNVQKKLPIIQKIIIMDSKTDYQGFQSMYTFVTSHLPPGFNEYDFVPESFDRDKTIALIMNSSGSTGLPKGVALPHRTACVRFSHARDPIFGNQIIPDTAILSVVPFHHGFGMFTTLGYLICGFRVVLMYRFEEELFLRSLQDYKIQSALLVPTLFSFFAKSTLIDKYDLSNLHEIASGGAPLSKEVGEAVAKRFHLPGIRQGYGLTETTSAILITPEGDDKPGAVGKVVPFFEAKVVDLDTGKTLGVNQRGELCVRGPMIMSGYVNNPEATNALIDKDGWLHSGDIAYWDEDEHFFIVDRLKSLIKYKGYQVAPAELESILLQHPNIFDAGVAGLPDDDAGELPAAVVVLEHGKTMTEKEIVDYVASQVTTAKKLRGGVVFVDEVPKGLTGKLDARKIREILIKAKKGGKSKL

Nc1ncnc2c1ncn2[C@@H]1O[C@H](COP(=O)(O)OP(=O)(O)OP(=O)(O)O)[C@@H](O)[C@H]1O [ATP]
bioluminescence read-out, 384-well plate: both ATP and Mg still need to be present in the FLuc reaction buffer
